Holding throughout (test): DTP human tumour cell line panel, 48 h
Experiment [1] relates to DLD-1.
The subject of experiment [2] is HOP-18.
For experiment [3], the system named is M19-MEL.
Experiment [4] deals with SNB-78.
Experiment [5] deals with XF498.
For experiment [6], the system named is BT-549.
The test system of experiment [7] is DMS-114.
Experiment [8] deals with LXFL 529.
Experiment [9] relates to RXF 631.

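Grown in 96-well plates, cells were treated for 48 hours with each compound at five concentrations. Insufficient inhibition: endpoint recorded as highest concentration tested. Here, GI50 denotes the concentration required for 50% inhibition of growth.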 Active and inactive are the calls of the source. Cut-off read from the data, not from the text of the source: active = GI50 up to about 1.1 µM and inactive = higher.

For `COc1ccc(C2COc3cc(O)c(O)cc3C2)cc1` (configuration not stated), the GI50 (as a rule, the concentration giving 50% growth inhibition) was 9.93 µM (inactive) in experiment [1]; 29.9 µM (inactive) in experiment [2]; 15.1 µM (inactive) in experiment [3]; 38.3 µM (inactive) in experiment [4]; 7.28 µM (inactive) in experiment [5].

As to `C=C1CC(C)(COc2ccc3c(C)cc(=O)oc3c2)OC1=O` (configuration not stated), the GI50 in [6] was 2.31 µM (inactive).

On to `COc1ccc(NC(=O)CC/C(CC(=O)c2ccccc2Cl)=N\Nc2nnc(C)n2N)cc1`, for which the GI50 in experiment [1], in experiment [7], in experiment [2], in [8], in [3] and in experiment [9] was > 100 µM (inactive) each time. Besides, the GI50 in [4] is > 100 µM (inactive).

`Cc1ccc([N+](=O)[O-])cc1NC(=O)C(=O)C(C(=O)c1ccccc1F)C1OC(=O)c2ccccc21` (configuration not stated): the GI50 was 41.5 µM (inactive) in experiment [1]; 16.5 µM (inactive) in experiment [7]; 34 µM (inactive) in experiment [8]; 33.4 µM (inactive) in [3]; 32.7 µM (inactive) in experiment [9]; > 100 µM (inactive) in experiment [4]. Also, the GI50 in experiment [5] was 81.5 µM (inactive).

With `CN1C(=O)CN=C(c2ccccc2F)c2cc(N=C=S)ccc21`, the GI50 in experiment [6] is 58.5 µM (inactive).

For the compound `COC1/C=C/C(C)C(C(C)C(OC)C(C)CCC(=O)C(C)C(C/C=C/N(C)C=O)OC)OC(=O)/C=C/C=C(\C)CC(OC)CC2=CC(=O)O[C@H](C2)C(C)C(OC)CC(OC)/C=C/C(C)C(OC)C1` (some centres not stated), in experiment [6], the GI50 was 0.0108 µM (active).

For the compound `C=CCNC(=S)N/N=C1\C(=O)Nc2ccc([N+](=O)[O-])cc21`, the GI50 in [6] is 52.4 µM (inactive).

Regarding `CCOC(=O)Nc1ccc(S(=O)(=O)NCCCl)cc1.CCOC(=O)Nc1ccc(S(=O)(=O)NCCCl)cc1.O=C(O)c1ccc(/N=N/Cl)cc1O`, the GI50 in experiment [1], in experiment [7], in [2], in experiment [8], in experiment [3] and in [9] was > 100 µM (inactive) throughout. Besides, in [4], the GI50 is > 100 µM (inactive).

Regarding `COc1nc2[nH]ccc2c(=O)[nH]1`, the GI50 was > 100 µM (inactive) in experiment [1]; > 100 µM (inactive) in experiment [7]; 42.7 µM (inactive) in experiment [2]; > 100 µM (inactive) in experiment [8]; > 100 µM (inactive) in experiment [9]; > 100 µM (inactive) in experiment [4].

In the case of `CN(C)c1ccc(C2SCC(=O)N2NS(=O)(=O)c2cccc(C(=O)O)c2)cc1` (configuration not stated), the GI50 in experiment [6] was > 100 µM (inactive).

Take `N#CC1(C#N)C2C=CC(C3CCC=C32)C1(C#N)C#N` (configuration not stated): in experiment [6], the GI50 was > 10 µM (inactive).

Regarding `O=c1c(-c2ccccc2)c(SCCCN2CCCCC2)n(-c2ccccc2)c(=S)n1-c1ccccc1`, the GI50 in [6] was 18 µM (inactive).

Regarding `CCOC(=O)CSc1c(C(=O)OCC)c(=O)n(-c2ccccc2)c(=S)n1-c1ccccc1`, in [6], the GI50 is 8.49 µM (inactive).

For the compound `CCN(CC)CCCC(C)Nc1cc(-c2ccccc2)nc2cc(OC)ccc12` (configuration not stated), the GI50 in [7] was 6.68 µM (inactive); in [8], 6.28 µM (inactive); in [3], 10.1 µM (inactive); in experiment [4], 3.21 µM (inactive).

Turning to `COc1ccc(CCCC(=O)O)c(C)c1`, the GI50 in experiment [6] was 84.9 µM (inactive).

Regarding `CN(C)c1n/c(=N/c2ccc(/N=c3\nc(N(C)C)ss3)cc2)ss1`, the GI50 is 13.4 µM (inactive) in experiment [1]; 16.7 µM (inactive) in [7]; 54 µM (inactive) in experiment [2]; > 33.5 µM (inactive) in [8]; 20.3 µM (inactive) in experiment [3]; 22 µM (inactive) in [9]. Besides, the GI50 in [4] was 17.6 µM (inactive).

`OCC1OC(n2ccc3cnccc32)CC1O` (configuration not stated): the GI50 in experiment [1], in experiment [7], in experiment [2], in experiment [8], in experiment [3] and in experiment [4] was > 100 µM (inactive) throughout.

In the case of `Cc1c2ccncc2cc2c1[nH]c1ccccc12`, the GI50 in experiment [1] is 5.01 µM (inactive); in [7] it was 5.27 µM (inactive); in [2], 0.789 µM (active); in experiment [3] it was 3.81 µM (inactive); in [4], 13 µM (inactive); in experiment [5], 1.12 µM (active).

For the compound `FC(F)(F)C(C1=NC(C(F)(F)F)(C(F)(F)F)N=C(N2CCOCC2)O1)C(F)(F)F`, in [6], the GI50 was 17.9 µM (inactive).

Take `COC1OC(=O)[C@H]2O[N+]([O-])=C(C)[C@@H]12` (some centres not stated): the GI50 in experiment [1], in experiment [7], in experiment [2], in experiment [3], in experiment [4] and in experiment [5] was > 100 µM (inactive) throughout.

As for `COc1ccc(NCC(=O)Nn2c(-c3ccccc3)nc3ccccc3c2=O)cc1`, the GI50 in experiment [6] was 23.3 µM (inactive).

Turning to `CC1(C)COC2C(N(Cc3ccccc3)Cc3ccccc3)C(=O)N21` (configuration not stated), the GI50 in experiment [1] is 50 µM (inactive); in experiment [2] it was 50 µM (inactive); in experiment [8] it was 51.3 µM (inactive); in [3], 73.8 µM (inactive); in experiment [4], 42.6 µM (inactive).
